Measured values: patent US20230278997A1, “BICYCLO[1.1.1]PENTANE COMPOUNDS FOR THE TREATMENT AND PROPHYLAXIS OF HEPATITIS B VIRUS INFECTION” (Hoffmann-La Roche Inc., priority 2020, published 2023)

What was measured:
[1] = system: HBsAg; assay: microbe, parasite or virus in culture; assay type: cell-based, HBV; details: Hepatitis B virus, read-out: HBsAg IC50
[2] = system: HBeAg; assay: microbe, parasite or virus in culture; assay type: cell-based, HBV; details: Hepatitis B virus, read-out: HBeAg IC50
[3] = system: primary human hepatocyte (PHH); assay: Cytotoxicity in PHH natural infection assay (Cell Counting Kit-8); assay type: cell-based; details: therapeutic index; CC50 by CCK8 in PHH over HBsAg IC50
Method: Detailed procedures regarding primary human hepatocyte (PHH) HBV natural infection assay are described as below. One tube of frozen PHH (10 million cells) was thawed in 37° C. water bath and then transferred to 20 mL of PHH thawing medium (Sigma, InVitroGRO HT Medium, Cat. 503319) with gently mixing. The cells were then centrifuged at […] for 5 min, the supernatant was discarded and the tube was refilled with 25 mL of PHH plating medium (Sigma, InVitroGRO CP Medium, Cat. 503317). The tube was shaken very gently to re-suspend all cells, and then 50 μl of cells were transferred to each well of a 384-well collagen I coated plate with appropriate liquid handling equipment, e.g. Integra VIAFLO384 or Agilent Bravo. The cells were then cultured for 24 hours in a cell incubator. For HBV infection, after PHH attachment on the culture plate, the plating medium was removed and replenished with PHH culture medium containing HBV virus. The PHH culture medium was prepared with Dulbecco's Modified Eagle Medium (DMEM)/F12 (1:1 in volume ratio) containing 10% fetal bovine serum (Gibco, Cat.10099141), 5 ng/mL human epidermal growth factor (Gibco, Cat.PHG031 IL), 20 ng/mL dexamethasone (Sigma, Cat.D4902-100 mg), 250 ng/mL human recombinant insulin (Gibco, Cat.41400045) and 100 U/mL penicillin. HBV virus at 200 genome equivalent (GE) per cell with 4% PEG8000 (Sigma, Cat.P1458) containing culture medium were added to the PHH culture medium for infection. The cells were then cultured for 24 hours in cell incubator. Then the cell culture supernatant was removed. The HBV-infected PHH were cultured with sandwich culture method with PHH culture medium containing 1% DMSO and 0.25 mg/mL matrix gel for 72 hours. The supernatant was then refreshed with PHH culture medium containing different concentrations of testing compounds for two times with 72-hour interval. At the end of treatment, the supernatant was collected for viral markers measurements, including HBsAg, HBeAg, HBV DNA and cytotoxicity. HBsAg and HBeAg were detected using alphalisa method using their specific antibodies. For HBV DNA detection, HBV DNA Quantitative Fluorescence Diagnostic Kit (Sansure Biotech Inc.) was used following the manufacture's protocol. Cytotoxicity was determined using Cell Counting Kit-8 (CCK8, Dojindo Molecular Technologies, Inc.).

[4] = Human microsome stability assay; assay type: in vitro ADME; details: 1 μM compound, 0.5 mg/mL microsomal protein, 37° C.; detection limit 6.15 mL/min/kg
Method: Human Microsome Stability Assay The human microsomal stability assay is used for early assessment of metabolic stability of a test compound in human liver microsomes. Human liver microsomes (Cat. […] The reactions were initiated by adding NADPH regenerating system. […] Following precipitation and centrifugation, the amount of compound remaining in the samples were determined by LC-MS/MS. Controls of no NADPH regenerating system at zero and 30 minutes were also prepared and analyzed.

Row | SMILES | IC50 [1] [nM] | IC50 [2] [nM] | TI (CC50/IC50 HBsAg) [3] | Clearance of human microsome [4] [mL/min/kg]
1 | CS(=O)(=O)C1(c2ccc(C(=O)NC34CC(c5nc(-c6cccc(Cl)c6)cs5)(C3)C4)o2)CC1 [Example 2, N-[3-[4-(3-chlorophenyl)thiazol-2-yl]-1-bicyclo[1.1.1]pentanyl]-5-(1-methylsulfonylcyclopropyl)furan-2-carboxamide] | 350 | 200 | 20.66 | ≤6.15
2 | CS(=O)(=O)C1(c2ccc(C(=O)NC34CC(c5nc(-c6ccccc6Cl)cs5)(C3)C4)o2)CC1 [Example 3, N-[3-[4-(2-chlorophenyl)thiazol-2-yl]-1-bicyclo[1.1.1]pentanyl]-5-(1-methylsulfonylcyclopropyl)furan-2-carboxamide] | 670 | 500 | 8.85 | ≤6.15
3 | CS(=O)(=O)C1(c2nsc(C(=O)NC34CC(c5nc(-c6cccc(Cl)c6)cs5)(C3)C4)n2)CC1 [Example 4, N-[3-[4-(3-chlorophenyl)thiazol-2-yl]-1-bicyclo[1.1.1]pentanyl]-3-(1-methylsulfonylcyclopropyl)-1,2,4-thiadiazole-5-carboxamide] | 170 | 120 | 29.65 | ≤6.15
4 | CS(=O)(=O)C1(c2ncc(C(=O)NC34CC(c5nc(-c6ccc(Cl)cc6)cs5)(C3)C4)o2)CC1 [Example 6, N-[3-[4-(4-chlorophenyl)thiazol-2-yl]-1-bicyclo[1.1.1]pentanyl]-2-(1-methylsulfonylcyclopropyl)oxazole-5-carboxamide] | 80 | 50 | 81.63 | ≤6.15
5 | CS(=O)(=O)C1(c2ccc(C(=O)NC34CC(c5nc(-c6ccc(Cl)c(Cl)c6)cs5)(C3)C4)o2)CC1 [Example 8, N-[3-[4-(3,4-dichlorophenyl)thiazol-2-yl]-1-bicyclo[1.1.1]pentanyl]-5-(1-methylsulfonylcyclopropyl)furan-2-carboxamide] | 160 | 110 | 16.69 | ≤6.15
6 | CS(=O)(=O)C1(c2ccc(C(=O)NC34CC(c5nc(-c6ccc(Cl)cn6)cs5)(C3)C4)o2)CC1 [Example 10, N-[3-[4-(5-chloro-2-pyridyl)thiazol-2-yl]-1-bicyclo[1.1.1]pentanyl]-5-(1-methylsulfonylcyclopropyl)furan-2-carboxamide] | 280 | 200 | 31.11 | ≤6.15
7 | CS(=O)(=O)C1(c2ccc(C(=O)NC34CC(c5nc(-c6ccccc6)cs5)(C3)C4)o2)CC1 [Example 13, 5-(1-methylsulfonylcyclopropyl)-N-[3-(4-phenylthiazol-2-yl)-1-bicyclo[1.1.1]pentanyl]furan-2-carboxamide] | 770 | 560 | 12.38 | ≤6.15
8 | CS(=O)(=O)C1(c2ccc(C(=O)NC34CC(c5nc(-c6ccc(Cl)cc6)ns5)(C3)C4)o2)CC1 [Example 18, N-[3-[3-(4-chlorophenyl)-1,2,4-thiadiazol-5-yl]-1-bicyclo[1.1.1]pentanyl]-5-(1-methylsulfonylcyclopropyl)furan-2-carboxamide] | 190 | 120 | 39.05 | 8.8
9 | CS(=O)(=O)C1(c2ccc(C(=O)NC34CC(c5ncc(-c6ccc(Cl)cc6)s5)(C3)C4)o2)CC1 [Example 19, N-[3-[5-(4-chlorophenyl)thiazol-2-yl]-1-bicyclo[1.1.1]pentanyl]-5-(1-methylsulfonylcyclopropyl)furan-2-carboxamide] | 210 | 160 | >47.62 | ≤6.15
10 | CS(=O)(=O)C1(c2ccc(C(=O)NC34CC(c5ncc(-c6ccc(Cl)c(Cl)c6)s5)(C3)C4)o2)CC1 [Example 21, N-[3-[5-(3,4-dichlorophenyl)thiazol-2-yl]-1-bicyclo[1.1.1]pentanyl]-5-(1-methylsulfonylcyclopropyl)furan-2-carboxamide] | 70 | 70 | 29.86 | 6.66
11 | CS(=O)(=O)C1(c2ccc(C(=O)NC34CC(c5csc(-c6ccccc6)n5)(C3)C4)o2)CC1 [Example 26, 5-(1-methylsulfonylcyclopropyl)-N-[3-(2-phenylthiazol-4-yl)-1-bicyclo[1.1.1]pentanyl]furan-2-carboxamide] | 780 | 530 | 8.91 | ≤6.15
12 | CS(=O)(=O)C1(c2ccc(C(=O)NC34CC(c5csc(-c6ccc(Cl)cc6)n5)(C3)C4)o2)CC1 [Example 27, N-[3-[2-(4-chlorophenyl)thiazol-4-yl]-1-bicyclo[1.1.1]pentanyl]-5-(1-methylsulfonylcyclopropyl)furan-2-carboxamide] | 130 | 90 | 39.46 | ≤6.15
13 | CS(=O)(=O)Cc1nsc(C(=O)NC23CC(c4nc(-c5ccc(Cl)cc5)no4)(C2)C3)n1 [Example 33, N-[3-[3-(4-chlorophenyl)-1,2,4-oxadiazol-5-yl]-1-bicyclo[1.1.1]pentanyl]-3-(methylsulfonylmethyl)-1,2,4-thiadiazole-5-carboxamide] | 440 | 370 | >22.73 | ≤6.15
14 | CS(=O)(=O)C1(c2nsc(C(=O)NC34CC(c5nc(-c6ccc(F)cc6)no5)(C3)C4)n2)CC1 [Example 35, N-[3-[3-(4-fluorophenyl)-1,2,4-oxadiazol-5-yl]-1-bicyclo[1.1.1]pentanyl]-3-(1-methylsulfonylcyclopropyl)-1,2,4-thiadiazole-5-carboxamide] | 50 | 40 | 79.80 | ≤6.15
15 | CS(=O)(=O)C1(c2ccc(C(=O)NC34CC(c5ccn(-c6ccc(Cl)cc6)n5)(C3)C4)o2)CC1 [Example 42, N-[3-[1-(4-chlorophenyl)pyrazol-3-yl]-1-bicyclo[1.1.1]pentanyl]-5-(1-methylsulfonylcyclopropyl)furan-2-carboxamide] | 590 | 340 | 13.39 | 8.21
16 | CS(=O)(=O)C1(c2nsc(C(=O)NC34CC(c5ccn(-c6ccc(Cl)cc6)n5)(C3)C4)n2)CC1 [Example 43, N-[3-[1-(4-chlorophenyl)pyrazol-3-yl]-1-bicyclo[1.1.1]pentanyl]-3-(1-methylsulfonylcyclopropyl)-1,2,4-thiadiazole-5-carboxamide] | 90 | 80 | >111.11 | ≤6.15
17 | CS(=O)(=O)C1(c2ccn(C(=O)NC34CC(c5nc(-c6ccc(Cl)cc6)cs5)(C3)C4)n2)CC1 [Example 53, N-[3-[4-(4-chlorophenyl)thiazol-2-yl]-1-bicyclo[1.1.1]pentanyl]-3-(1-methylsulfonylcyclopropyl)pyrazole-1-carboxamide] | 170 | 110 | 21.88 | –
18 | CS(=O)(=O)C1(c2ccn(C(=O)NC34CC(c5ncc(-c6ccc(Cl)cc6)s5)(C3)C4)n2)CC1 [Example 54, N-[3-[5-(4-chlorophenyl)thiazol-2-yl]-1-bicyclo[1.1.1]pentanyl]-3-(1-methylsulfonylcyclopropyl)pyrazole-1-carboxamide] | 60 | 50 | 10.83 | –
19 | CS(=O)(=O)C1(c2ncc(C(=O)NC34CC(c5ncc(-c6ccc(Cl)cc6)s5)(C3)C4)o2)CC1 [Example 55, N-[3-[5-(4-chlorophenyl)thiazol-2-yl]-1-bicyclo[1.1.1]pentanyl]-2-(1-methylsulfonylcyclopropyl)oxazole-5-carboxamide] | 90 | 70 | 89.00 | –
